From patent US20250333394A1, “Tiparp Inhibitor Compounds” (AbbVie Inc., priority 2024, published 2025)

Legend:
[1] = system: NCI-H1373 tumors; experiment: NCI-H1373 xenograft tumor model efficacy; type: in vivo, mouse; conditions: PO BID for 14 days, SCID-beige mice
Experimental: The human xenograft line NCI-H1373 was obtained from ATCC (American Type Culture Collection, Manassas, Virginia, USA). A suspension of 5×10^6 cells in culture medium mixed with Matrigel® (Corning Life Sciences, Lowell, MA, USA; 1:1, volume:volume) was injected subcutaneously in the right hind flank of female SCID-beige mice to generate tumor formation. Treatment started when the size of the flank tumors was approximately 120 mm^3. The TIPARP inhibition activity of Example 1 was evaluated by dosing five separate treatment groups with vehicle and four different doses of Example 1, administered twice a day (BID) for 14 days. Each administration consisted of a 0.2 mL PO dose in a vehicle formulation (10% ethanol, 30% PEG300, and 60% PHOSAL® 50).

[2] = molecular target: PARP1 GST (Homo sapiens (Human), UniProt P09874); experiment: TR-FRET binding assay, PARP1; conditions: Probe 2, 2 hours incubation
Outline: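 Serially diluted compounds, final 30 μM down to 0.5 nM, incubated 2 h at ambient temperature with GST-tagged protein/probe mix plus 1 nM Tb-anti-GST antibody. Buffer: 50 mM Tris-HCl pH 8.0, 5 mM MgCl2, 5 μM ZnCl2, 1 mM DTT, 0.15% BSA, 0.01% Triton X-100. Binding read as TR-FRET ratio.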

[3] = system: IFNβ; experiment: Tumor selective induction of IFNβ in MC-38 (Ker) syngeneic model; type: in vivo, mouse; conditions: 3 hours after last dose, PO once daily for 2 days
Experimental: The murine cell line MC-38 derived from C57BL/6 murine colon adenocarcinoma cells was obtained from Kerafast (Boston, MA, USA). A suspension of 2.5×10^5 cells in culture medium mixed with Matrigel® (Corning Life Sciences, Lowell, MA, USA; 1:1, volume:volume) was injected subcutaneously in the right hind flank of female C57BL/6 mice to generate tumor formation. Treatment started when the size of the flank tumors was approximately 500 mm^3. Vehicle and three different doses of Example 1 were administered once daily to each of four to five mice at each dose level for 2 days. Each administration consisted of a single 0.2 mL PO dose in a vehicle formulation (10% ethanol, 30% PEG300, and 60% PHOSAL® 50 PG).
Blood and tumors were collected 3 hours after the last dose. Blood was transferred to microfuge tubes containing E DTA, centrifuged at 2000×g for 8 minutes at 4° C., and the upper plasma layer was transferred to new tubes and frozen at −80° C. Tumors were weighed and 200 to 500 mg of tumor tissue was transferred to microfuge tubes, which were then centrifuged at 15000×g for 10 minutes at 4° C. The supernatant was transferred to a fresh 96 well plate. […] The concentration of IFNβ in the thawed plasma and tumor fluid was determined using a Milliplex MAP mouse IFNβ assay (EMD Millipore, Burlington, MA, USA).

[4] = system: NCI-H1373 cells; experiment: NCI-H1373 CellTiter-Glo cell assay for TIPARP inhibition; type: cell-based, human; conditions: Homo sapiens, NCI-H1373, 144 h; 6 days, 100 nM 10-Cl-BBQ in medium; read-out: NCI-H1373 CTG EC50
Outline: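 NCI-H1373 cells (1000/well) grown in RPMI 1640 with 10% FBS and 100 nM 10-Cl-BBQ, exposed to compounds from 30 μM to 0.5 nM final in 3-fold steps for 6 days at 37° C. Cell number read on day 7 by CellTiter-Glo luminescence.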

PARP1 GST, sequence (P09874 whole entry): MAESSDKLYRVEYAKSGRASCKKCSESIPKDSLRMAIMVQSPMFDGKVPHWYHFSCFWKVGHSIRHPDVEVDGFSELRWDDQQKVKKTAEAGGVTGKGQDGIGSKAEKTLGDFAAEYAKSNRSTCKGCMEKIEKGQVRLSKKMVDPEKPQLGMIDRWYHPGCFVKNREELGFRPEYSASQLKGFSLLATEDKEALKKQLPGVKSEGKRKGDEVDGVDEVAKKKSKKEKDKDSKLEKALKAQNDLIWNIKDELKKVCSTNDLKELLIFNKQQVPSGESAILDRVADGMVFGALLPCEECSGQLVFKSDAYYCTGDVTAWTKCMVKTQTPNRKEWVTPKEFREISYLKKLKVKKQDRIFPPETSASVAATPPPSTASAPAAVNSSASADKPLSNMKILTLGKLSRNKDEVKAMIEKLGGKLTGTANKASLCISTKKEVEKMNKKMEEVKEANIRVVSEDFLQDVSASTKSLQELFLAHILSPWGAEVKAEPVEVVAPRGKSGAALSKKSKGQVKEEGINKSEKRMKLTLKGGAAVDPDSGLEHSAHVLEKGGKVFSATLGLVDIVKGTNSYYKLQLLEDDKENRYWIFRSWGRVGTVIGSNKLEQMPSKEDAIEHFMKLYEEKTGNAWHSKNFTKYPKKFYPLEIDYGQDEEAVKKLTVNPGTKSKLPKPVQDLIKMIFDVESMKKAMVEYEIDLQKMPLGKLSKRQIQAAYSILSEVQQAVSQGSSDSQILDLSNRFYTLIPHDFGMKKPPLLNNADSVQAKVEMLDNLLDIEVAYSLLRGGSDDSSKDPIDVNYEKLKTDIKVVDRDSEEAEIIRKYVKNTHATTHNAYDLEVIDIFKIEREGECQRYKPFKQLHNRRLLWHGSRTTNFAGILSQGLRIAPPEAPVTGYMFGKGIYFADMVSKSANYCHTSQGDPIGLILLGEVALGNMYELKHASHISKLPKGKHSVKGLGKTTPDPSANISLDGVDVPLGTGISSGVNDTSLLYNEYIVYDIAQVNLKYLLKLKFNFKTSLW

## C[C@@H]1CN(c2ncc(C(F)(F)F)cn2)CCN1C(=O)[C@H]1C[C@@H](c2c[nH]c(=O)c(C(F)(F)F)c2)C1 [Example 1, 5-[(1S,3s)-3-{(2R)-2-methyl-4-[5-(trifluoromethyl)pyrimidin-2-yl]piperazine-1-carbonyl}cyclobutyl]-3-(trifluoromethyl)pyridin-2(1H)-one]
[1]; Dose A
  TGIMax: 26%
[1]; Dose B
  TGIMax: 46%
[1]; Dose C
  TGIMax: 73%
[1]; Dose D
  TGIMax: 92%
[2]
  IC50: 2.74 µM
[3]; plasma
  induction of IFNβ in plasma: not in plasma
[3]; tumor fluid
  induction of IFNβ in tumors: induced IFNβ in MC-38 (Ker) tumors compared to vehicle
[4]
  EC50: 0.0172 µM
